# Laboratory results from patent US20230099567A1, “COMPOSITION FOR TREATMENT, PREVENTION, OR AMELIORATION OF LYMPHEDEMA” (RAPPELER CO., LTD., priority 2020, published 2023).
# Where two headings read alike, the source gives them in different places.
# Legend:
# [1] = tested on: LPS-induced TNFα production in mouse peritoneal macrophages; assay: LPS-induced TNFα production in mouse peritoneal macrophages (ELISA); assay type: cell-based; conditions: Mus musculus, Peritoneal macrophage, 24 h, mouse peritoneal macrophages, 100 ng/ml LPS 24 h; measured twice, mean ± standard deviation; read-out: IC50, dose-dependent inhibition of TNFα production in macrophages
# Procedure: To isolate peritoneal macrophages, male Balb/c mice were intraperitoneally injected with 2 ml of 3.5% sterile thioglycolate (B D, Sparks, Md., USA) 4 days before being sacrificed. Mice were sacrificed by cervical dislocation, and peritoneal secretory cells were aseptically isolated through peritoneal washing with cold DMEM (HyClone, Logan, Utah, USA) containing 10% FBS (fetal bovine serum; HyClone) and 1% penicillin-streptomycin. After centrifugation, cells were resuspended and counted using a TC20 Cell Counter (Bio-Rad Laboratories, Hercules, Calif., USA). Peritoneal secretory cells were left in a 24-well plate overnight at 37° C., and non-adherent cells were removed. The cells were then stimulated with 100 ng/ml lipopolysaccharide (LPS) for 24 hours. The supernatant was collected during cytokine analysis, and the level of TNFα in the supernatant was measured using BD OptEIA mouse ELISA sets (BD Biosciences, San Diego, Calif., USA) according to the manufacturer's protocol. […] IC50 (μM) values were measured twice, respectively, and expressed as mean±standard deviation.
# [2] = tested on: PPARγ and a target protein Fabp4; assay: Expression of PPARγ and Fabp4 in lymphedema tissue (western blot, mRNA); assay type: in vivo; conditions: mouse
# PPARγ = assay: Immunofluorescence staining of PPARγ in epidermal layer of lymphedema tissue; assay type: in vivo; conditions: mouse
# Source text: (§1) Tissue samples were collected on the 7th day after surgery to induce lymphedema at a location 15 mm-25 mm from the right leg of the mouse. The harvested tissue samples were fixed with 10% formalin solution, and the specimens were cut to a thickness of 5 μm. Sections were deparaffinized in 100% xylene, rehydrated with a series of 100% ethanol, 95% ethanol, 90% ethanol, 80% ethanol, and 70% ethanol, and washed with water. Sections were reacted with hematoxylin solution at room temperature. After washing in PBS, sections were stained with eosin at room temperature. Images were acquired by a Pannoramic viewer microscope (3[…] Ltd., Hungary). Prepared slides were incubated using anti-mouse PPARγ (Santa Cruz Biotechnology, USA) and Alexa Fluor 488 and DAPI (Life Technologies, USA). Samples were analyzed using a Nikon ECLIPSE 80i microscope (Nikon Instruments Inc., Japan).
# In addition, peroxisome […] (PPARγ) is a major regulator of lipogenesis, and as shown in FIG. 4B showing the results of immunofluorescence staining, the distribution of PPARγ in the epidermal layer of lymphedema tissue after treatment with compound 1 and compound 14a was suppressed.
# [3] = Pharmacokinetic analysis in mice after I.V. and oral administration; assay type: in vivo, mouse; conditions: male CD-1 mice; for Cmax: read-out: Cmax (maximum plasma concentration)
# Procedure: Compounds were administered to 5-week-old male CD-1 mice through 1 mg/kg tail vein administration (administration volume of 5 mL/kg), 20 mg/kg oral administration, and 100 mg/kg oral administration, respectively. Three mice were used for each independent experiment. Blood samples were taken in an amount of 20 μL to 30 μL via the saphenous vein at 5, 15, 30, 60, 120, 180, 360, and 1440 minutes.
# In addition, pharmacokinetic parameters were calculated from non-compartmental analysis using Win Non-lin.
# In Table 3, T1/2 denotes the terminal half-life, Cmax denotes the maximum plasma concentration, AUC-O denotes the area under the plasma concentration-time curve from time zero to infinity, and indicates exposure concentration of whole blood, and BA represents bioavailability expressed as (AUCpo/AUCiv)×100. […] Cmax and AUC∞ are mean±SD values obtained from three male ICR mice. Regarding blood exposure during systemic circulation of the compound, the compound was orally administered at an amount of 100 mg/kg, and then, AUC (area under the curve) was measured, and the obtained measurements were compared.
# [4] = tested on: lymphedema induced in mice; assay: Prophylactic effect on lymphedema formation, surgically induced murine lymphedema model (volume); assay type: in vivo, mouse; conditions: 7th day after surgery, oral administration 7 days before surgery, then once every two days, vs control group
# Procedure: All animal tests in the following examples were performed after obtaining approvals by the Institutional Animal Care and Use Committee (IACUC) of Sungkyunkwan University School of Medicine (Approval No.: […]-20150037). All methods were performed according to the approved guidelines. […] Briefly, major lymphatic sites including inguinal lymph nodes, popliteal lymph nodes, deep inguinal lymph nodes and femoral lymphatic vessels were removed, and the lower right leg of the mouse was limitedly cauterized under anesthesia.
# Compounds 1, 7m, and 14a were each orally administered to mice for 7 days before surgical induction of lymphedema in mice.
# On the other hand, in the control group, the compound 1 treatment group, the compound 7m treatment group, and the compound 14a treatment group, lymphedema was induced through surgery. After surgery, the compounds were administered once every two days.
# The volume of lymphedema was measured on the 7th day after surgery, and the size of the lymphedema was recorded using a caliper ruler by a person who was blinded to the treatment status of the mice.
# TNFα = assay: mRNA expression of TNFα in lymphedema tissue; assay type: in vivo; conditions: 7th day after surgery, mouse
# Source text: As a result, it was confirmed that the expression level of TNFα mRNA was decreased in the compound 1 treatment group and the compound 14a treatment group (with respect to the control group, *: P<0.05; with respect to compound 1, #: P<0.05).
# lymphedema tissue = assay: Histological (H&E) analysis of lymphedema tissue of the right hind leg; assay type: in vivo; conditions: 7th day after surgery, right hind leg of mouse
# Source text: as §1
# In FIG. 3A, the scale bar of the upper panel is 500 μm, and the scale bar of the lower panel is 100 μm.
# In FIG. 4A, the scale bar of the upper panel is 200 μm, and the scale bar of the lower panel is 100 μm.
# [5] = Physicochemical properties (pKa, logP, solubility)
# Source text: Compound 1 is butein and the therapeutic effect on lymphedema thereof is disclosed in Korean Patent Publication No. 10-1533197 (published on Jul. 2, 2015).
# [6] = mouse, plasma, iv, I.V, 1 mg/Kg
# [7] = mouse, plasma, po, P.O, 20 mg/Kg
smiles,measurement,setting,value
"O=C(Oc1cc(O)ccc1C(=O)/C=C/c1ccc(O)c(O)c1)c1ccccc1 [compound 14a, (E)-2-(3-(3,4-dihydroxyphenyl)acryloyl)-5-hydroxyphenyl benzoate]",IC50,[1],14.6 ± 1.56 µM
same,levels of PPARγ and Fabp4 mRNA (FIG. 4D),[2]; lymphedema tissue,more significant efficacy even compared to compound 1
same,"expression of PPARγ and Fabp4 in lymphedema tissue (western blot, FIG. 4C)",[2],reduced the expression of PPARγ
same,distribution of PPARγ in the epidermal layer of lymphedema tissue (FIG. 4B),PPARγ,suppressed
same,T1/2 (terminal half-life),"[3]; I.V, 1 mg/Kg",81.6 min
same,Tmax,"[3]; I.V, 1 mg/Kg",12 min
same,T1/2 (terminal half-life),"[3]; P.O, 20 mg/Kg",34.2 min
same,Tmax,"[3]; P.O, 20 mg/Kg",24 min
same,Cmax (maximum plasma concentration),"[3]; P.O, 100 mg/Kg",1.6 µg/mL
same,T1/2 (terminal half-life),"[3]; P.O, 100 mg/Kg",21 min
same,Tmax,"[3]; P.O, 100 mg/Kg",24 min
same,BA (bioavailability),"[3]; P.O, 100 mg/Kg, (AUCpo/AUCiv)×100",7.5%
same,AUC(0-inf),[3]; [6],0.163 µg·h/mL
same,Cmax,[3]; [6],0.11 µg/mL
same,AUC(0-inf),[3]; [7],0.141 µg·h/mL
same,bioavailability,"[3]; mouse, plasma, po, P.O, 20 mg/Kg, (AUCpo/AUCiv)×100, read-out: BA (bioavailability)",4%
same,Cmax,[3]; [7],0.083 µg/mL
same,melting point,,204.9 °C
same,volume of lymphedema reduced by,[4],70%
same,expression level of TNFα mRNA in lymphedema tissue (FIG. 3B),TNFα,decreased
same,"development of adipose tissue in the epidermal layer (H&E, FIG. 4A)",lymphedema tissue,inhibiting the development of adipose tissue in the epidermal layer
same,"neutrophil infiltration and epidermal layer of lymphedema tissue (H&E, FIG. 3A)",lymphedema tissue,decreased neutrophil infiltration and ameliorated the epidermal layer of lymphedema tissue
same,logP (partition coefficient),[5],3.47
same,solubility,"[5]; water solubility, read-out: Solubility",0.136 mg/mL
